Consider six compounds from patent publication US12439922B2, “Plant-based chemicals for Varroa mite control” (priority 2019, dated 2025).

Data set [1] concerns Varroa mites (Varroa destructor). In words: LD50 determination for mites (topical application, mortality at 24 h). Type of data set: in vivo. The following applies: for estimated LD50: max. dose 3200 ng/mite in three trials; for Mean LD50 / LD50 1 / LD50 2 / LD50 3: topical, mortality at 24 h; for Mean LD50: mean±se of three trials; for LD50 1: trial 1; for LD50 2: trial 2; for LD50 3: trial 3. On the procedure:
Varroa mites (Varroa destructor) were collected from colonies at the Michigan State University apiary in East Lansing, MI. Mites were collected using the “sugar shake” method (Macedo and Ellis 2002). Approximately 350 bees were brushed from brood frames into a plastic basin and then poured into 473 ml wide-mouth Mason jars fitted with screen lids (3 mm×3 mm mesh). Approximately 8 g powdered sugar were sifted through the screen and the jar was shaken for 20 seconds and let to sit for 3 minutes. The mites then fell through the screen onto a piece of paper. Mites were collected, and the sugar dusts were washed off using moistened paintbrushes. Mites were kept in Petri-dishes with worker pupae and transported to the campus lab for LD50 determination.
Chemicals were dissolved in acetone serially diluted to obtain appropriate dosages. Each mite was topically applied with 0.2 μl of acetone containing the tested chemicals. A triplicate of 10 mites per dose were then housed in a Petri dish (diameter 3 cm, 34.5° C., RH 75%) with one white-eyed worker pupa as food. Mortality was assessed at 24 h. Mites were considered dead if no movement is observed in response to prodding with a metal probe.
(§1) For both bee and mite mortality data, control mortality was used to correct the mortality of different doses of drugs (Abbott, 1925). A Log-Probit line was fitted for each treatment from which the LD50 values and 95% confidence intervals were calculated using the R statistical package (R Development Core Team 2008).

The subject of another data set is Varroa mites. In words: Picrotoxinin applied to bees inoculated with Varroa mites: dead mites. Type of data set: in vivo, Varroa destructor. Conditions: for 24-hour dead mite / 4-hour dead mite / 2-hour dead mite: 10 mites on 10 bees per dish. On the procedure:
(§2) Picrotoxinin was dissolved in acetone (0.0064 gram picrotoxinin in 1.6 ml acetone=4 ug/ul) and then serially diluted to various doses. A selected amount of picrotoxinin was applied to each bee after CO2 anesthetization. Then, the bees were inoculated with Varroa mites (10 mites on 10 bees per dish). This procedure was employed to ensure that the mites were obtaining the chemical from the bees.
(§3) The numbers of dead Varroa mites and dead bees were recorded after 2, 4 and 24 hours.

Another data set relates to bees. The data set is classed as in vivo, Apis mellifera. On the procedure:
as §2, §3

The test system of the next data set is honey bees (foragers). The data set can be described thus: LD50 determination for bees (topical application to foragers, mortality observed for 2 days). Type of data set: in vivo, Apis mellifera. On the procedure:
Honey bees were obtained from the MSU apiary. Forty to fifty colonies were routinely kept during summer months for experiments. Foragers were used for LD50 determination because they are the most sensitive to toxins.
Foragers were collected when they were returning to the hive by an insect vacuum. Foragers were briefly anesthetized with carbon dioxide and individual forager was dosed with 4 μl of acetone containing various dosages of insecticide (at least 5 doses per drug) and a control with 4 μl of acetone only. Bees then were caged together (a triplicate of 10 bees per dose per colony) and their mortality observed for 2 days (acute toxicity) in an incubator (34.5° C., RH 75%).
as §1

Data set [2] in a line: Highest amount that dissolves in acetone. Type of data set: physicochemical. Conditions: in 4 μl acetone. On the procedure:
Higher doses to honey bees were not tested because 2 mg was the highest amount one can dissolve with 4 μl acetone.

“And” between values parts separate entries of the source, which are not always exact repeats. Identical values can stand only once. Like-named read-outs stand apart in the source and are kept apart here.

On to `CC(C)(C)[C@]1(O)CC2OC(=O)CC23C(=O)OC2OC(=O)[C@H](O)C231` (stereo partly shown) [Bilobalide], for which, in data set [1], the “estimated LD50” value is listed as over 3200 ng/mite.
As to `CC1(C)C(C=C(Cl)Cl)C1C(=O)OC(C#N)c1ccc(F)c(Oc2ccccc2)c1` (stereo not shown) [Cyfluthrin, reference compound], in data set [1], the “Mean LD50” value stood at 0.63 ± 0.18 ng/mite, the “LD50 1” value worked out at 0.46 ng/mite, the “LD50 2” value was 0.82 ng/mite and the “LD50 3” value was 0.60 ng/mite.
Consider `C[C@@H]1C(=O)O[C@H]2[C@H](O)[C@@]34[C@H]5C[C@@H](C(C)(C)C)[C@]36[C@@H](OC(=O)[C@@H]6O)O[C@@]4(C(=O)O5)[C@@]12O` [Ginkolide B], for which the “estimated LD50” value in data set [1] was over 3200 ng/mite.
With `C=C(C)[C@@H]1[C@H]2OC(=O)[C@@H]1[C@]1(O)C[C@H]3O[C@]34C(=O)O[C@H]2[C@]14C` [Picrotoxinin, picrotoxinin], the 24-hour dead mite is 1 in the data set with Varroa mites (0.000005 ug/bee); 3 and 2 in the data set with Varroa mites (0.0005 ug/bee); 5 and 3 with Varroa mites (0.05 ug/bee); 6 and 9 with Varroa mites (0.1 ug/bee); 7 and 10 in the data set on Varroa mites (1 ug/bee). In addition, the 4-hour dead mite in the data set on Varroa mites (0.00005 ug/bee) is 1; in the data set with Varroa mites (0.0005 ug/bee), 3; in the data set with Varroa mites (0.005 ug/bee) it was 1; in the data set with Varroa mites (0.05 ug/bee), 2 and 1; in the data set on Varroa mites (0.1 ug/bee), 5 and 4; in the data set on Varroa mites (1 ug/bee), 4 and 5. Also, the 2-hour dead mite in the data set on Varroa mites (0.0005 ug/bee) was 1; with Varroa mites (0.005 ug/bee), 1; with Varroa mites (0.1 ug/bee), 2; with Varroa mites (1 ug/bee), 2 and 4. Besides, the “24 hr dead mite” value with Varroa mites (treatment 1 ug/ul) is 9 and 10; in the data set with Varroa mites (treatment 4 ug/ul), 10. The compound further yielded a 24-hour dead bee in the data set on bees (0.005 ug/bee, 10 bees per dish) of 1. This compound also registered a 2-hour dead bee in the data set on bees (0.1 ug/bee, 10 bees per dish) of 1. In addition, the 4-hour dead bee is given as 1 in the data set on bees (0.1 ug/bee, 10 bees per dish) and 1# with bees (1 ug/bee, 10 bees per dish, # = dead perhaps due to leaked sugar syrup). In addition, in the data set with bees (treatment 1 ug/ul), the “24 hr dead bee” value was 0. The “killing of honeybees at highest dose” value in the data set with honey bees (foragers) (2,000,000 ng (2 mg) per bee in 4 μl acetone) is reported as “failed to kill any honeybees”. Also, the LD50 in the data set on honey bees (foragers) (topical to foragers, max dose 2000 ug/bee) was >2000 (max dose ug/bee. Further, in data set [1] (dose response of FIG. 1), the “LD50 for this particular trial (FIG. 1)” value is 22.61 ng/mite. Besides, in data set [1] (mite LD50 versus highest bee dose), the “susceptibility of Varroa mites to toxicity compared to honey bees” value is recorded as “at least 100,000 fold”. Moreover, the figures for the “Mean LD50” value in data set [1] and in data set [1] (listed as picrotoxinin) were 20.16 ± 2.00 ng/mite and 20.16±2.00 ng/mite, respectively. Further, the “LD50 1” value in data set [1] is on record as 20.82 ng/mite. Moreover, the “LD50 2” value in data set [1] is listed as 22.61 ng/mite. For the same compound, in data set [1], the “LD50 3” value amounted to 17.05 ng/mite. Moreover, in data set [2], the “highest amount one can dissolve” value was 2 mg.
Turning to Ginkolide A, in data set [1], the “Mean LD50” value is given as 535.52±450.90 ng/mite, the “LD50 1” value turned out to be 348.63 ng/mite, the “LD50 2” value was determined as 1049.82 ng/mite and the “LD50 3” value is given as 208.10 ng/mite.
Consider Ginkolide C, for which the “estimated LD50” value in data set [1] was over 3200 ng/mite.
